± gives the expanded uncertainty stated by the source.
Conditions: 101.33 kPa, Liquid; for speed of sound: Sing-around technique in a fixed-path interferometer

SMILES: CCCCO [butan-1-ol]
- mass density (293.15 K): 809.644 ± 0.46 kg/m3
- speed of sound (293.15 K): 1256.7 ± 0.82 m/s
- mass density (298.15 K): 805.842 ± 0.47 kg/m3
- speed of sound (298.15 K): 1239.2 ± 0.81 m/s
- mass density (303.15 K): 801.995 ± 0.47 kg/m3
- speed of sound (303.15 K): 1222.7 ± 0.81 m/s

SMILES: CCCCCO [pentan-1-ol]
- mass density (293.15 K): 814.738 ± 0.76 kg/m3
- speed of sound (293.15 K): 1292.5 ± 1.2 m/s
- mass density (298.15 K): 811.067 ± 0.77 kg/m3
- speed of sound (298.15 K): 1275.1 ± 1.2 m/s
- mass density (303.15 K): 807.366 ± 0.78 kg/m3
- speed of sound (303.15 K): 1258.5 ± 1.2 m/s

SMILES: CCCCCCO [hexan-1-ol]
- speed of sound (293.15 K): 1320.3 ± 1.2 m/s
- speed of sound (298.15 K): 1303 ± 1.2 m/s
- speed of sound (303.15 K): 1286.3 ± 1.2 m/s
